Measured values: ChEMBL document CHEMBL5329208 (RSC Med Chem, 2023)
In brackets after ≈: the same amount, converted by molar mass. Activity calls are given as the source filed them. The rule behind the calls is not given here.

Columns and labels:
[1] = Metabolic stability in human liver assessed as intrinsic clearance preincubated for 10 mins followed by NADPH addition and measured after 60 mins by LC-MS/MS analysis; format: ADME, tissue-based; conditions: time 70 min, read-out: CLH
[2] = Water solubility of compound in phosphate buffer at pH 7 by HPLC analysis; format: physicochemical
CYP1A2 = target: T1, CYP1A2 (Homo sapiens, UniProt P05177); assay: Inhibition of CYP1A2 (unknown origin) at 10 uM using phenacetin as substrate incubated for 10 mins in presence of NADPH by LC-MS/MS analysis relative to control; format: ADME; conditions: probe phenacetin
T1 sequence (P05177 whole entry): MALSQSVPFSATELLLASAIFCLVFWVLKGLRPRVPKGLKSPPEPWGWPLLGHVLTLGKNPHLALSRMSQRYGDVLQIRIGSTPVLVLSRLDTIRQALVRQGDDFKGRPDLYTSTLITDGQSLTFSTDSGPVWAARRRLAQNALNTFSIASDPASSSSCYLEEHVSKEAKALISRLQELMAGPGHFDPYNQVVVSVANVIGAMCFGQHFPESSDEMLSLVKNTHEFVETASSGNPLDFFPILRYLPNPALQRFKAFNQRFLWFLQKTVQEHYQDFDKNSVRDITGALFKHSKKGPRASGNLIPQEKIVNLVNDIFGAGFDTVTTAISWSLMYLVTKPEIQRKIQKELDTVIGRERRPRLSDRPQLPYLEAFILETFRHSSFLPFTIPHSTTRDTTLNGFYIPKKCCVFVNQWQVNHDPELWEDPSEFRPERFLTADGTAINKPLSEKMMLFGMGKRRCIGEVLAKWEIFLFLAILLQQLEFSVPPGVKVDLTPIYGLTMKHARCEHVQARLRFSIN

[3] = Water solubility of compound in phosphate buffer at pH 2 by HPLC analysis; format: physicochemical
CYP2D6 = CYP2D6 (Homo sapiens, UniProt P10635); assay: Inhibition of CYP2D6 (unknown origin) at 10 uM using dextromethorphan as substrate incubated for 10 mins in presence of NADPH by LC-MS/MS analysis relative to control; format: ADME; conditions: probe dextromethorphan
[4] = Cytotoxicity against human HePAD38 cells assessed as reduction in cell viability by CCK-8 assay; format: toxicity, cell-based
hERG (KCNH2) [5] = target: T2, hERG (KCNH2) (Homo sapiens, UniProt Q12809); assay: Inhibition of hERG expressed in HEK293 cells at 1 uM at holding potential of -80 mV by whole cell patch clamp assay relative to control; format: toxicity, cell-based; conditions: HEK293 cells expressing hERG
Hepatitis B virus [6] = assay: Antiviral activity against HBV infected human HePAD38 cells assessed as reduction in intracellular core protein content upto 10 uM incubated for 6 days; format: functional, organism-based; conditions: time 6.0 day
CYP2C9 = CYP2C9 (Homo sapiens, UniProt P11712); assay: Inhibition of CYP2C9 (unknown origin) at 10 uM using diclofenac as substrate incubated for 10 mins in presence of NADPH by LC-MS/MS analysis relative to control; format: ADME; conditions: probe diclofenac
CYP2C19 = CYP2C19 (Homo sapiens, UniProt P33261); assay: Inhibition of CYP2C19 (unknown origin) at 10 uM using s-mephenytoin as substrate incubated for 10 mins in presence of NADPH by LC-MS/MS analysis relative to control; format: ADME; conditions: probe S-mephenytoin
[7] = Selectivity index, ratio of CC50 for cytotoxicity against human HePAD38 cells assessed as reduction in cell viability to EC50 for antiviral activity against HBV infected human HePAD38 cells assessed as reduction of HBV DNA level; format: toxicity, cell-based; conditions: read-out: Ratio CC50/EC50
CYP3A = CYP3A (Homo sapiens, UniProt P08684+P20815+P24462+Q9HB55); assay: Inhibition of CYP3A (unknown origin) at 10 uM using midazolam as substrate incubated for 10 mins in presence of NADPH by LC-MS/MS analysis relative to control; format: ADME, protein assay; conditions: probe midazolam
[8] = Metabolic stability in human liver microsome assessed as intrinsic clearance preincubated for 10 mins followed by NADPH addition and measured after 60 mins by LC-MS/MS analysis; format: ADME; conditions: liver microsomes, time 70 min, read-out: CLH
[9] = Metabolic stability in human liver microsome assessed as half life preincubated for 10 mins followed by NADPH addition and measured after 60 mins by LC-MS/MS analysis; format: ADME; conditions: liver microsomes, time 70 min
hERG (KCNH2) [10] = target: T2, hERG (KCNH2); assay: Inhibition of hERG expressed in HEK293 cells at 10 uM at holding potential of -80 mV by whole cell patch clamp assay relative to control; format: toxicity, cell-based; conditions: HEK293 cells expressing hERG
Hepatitis B virus [11] = assay: Antiviral activity against HBV infected human HePAD38 cells assessed as reduction in intracellular core protein content at 0.003 uM incubated for 6 days by Western blot analysis; format: functional, organism-based; conditions: time 6.0 day
Hepatitis B virus [12] = assay: Antiviral activity against HBV infected human HePAD38 cells assessed as reduction of HBV DNA level with compound replacement for every 3 days and measured on day 6 by qPCR analysis; format: functional, organism-based
Hepatitis B virus [13] = assay: Antiviral activity against HBV infected human HePAD38 cells assessed as reduction in intracellular capsid content upto 10 uM incubated for 6 days; format: functional, organism-based; conditions: time 6.0 day
[14] = Water solubility of compound in phosphate buffer at pH 7.4 by HPLC analysis; format: physicochemical
[15] = Metabolic stability in human liver microsome assessed as parent compound remaining preincubated for 10 mins followed by NADPH addition and measured after 60 mins by LC-MS/MS analysis; format: ADME; conditions: liver microsomes, time 70 min, read-out: Stability
Hepatitis B virus [16] = assay: Antiviral activity against HBV infected human HePAD38 cells assessed as reduction in intracellular core protein content at 0.08 uM incubated for 6 days by Western blot analysis; format: functional, organism-based; conditions: time 6.0 day
Hepatitis B virus [17] = assay: Antiviral activity against HBV infected in human HepG2.2.15 cells assessed as reduction in extracellular HBV DNA level incubated for 8 days by Southern blotting; format: functional, organism-based; conditions: HepG2.2.15, 192 h
Hepatitis B virus [18] = assay: Antiviral activity against HBV infected human HePAD38 cells assessed as reduction in intracellular core protein content incubated for 6 days by Western blot analysis; format: functional, organism-based; conditions: dose 1.0 µM, time 6.0 day
Hepatitis B virus [19] = assay: Antiviral activity against HBV infected human HePAD38 cells assessed as reduction in intracellular core protein content at 0.016 uM incubated for 6 days by Western blot analysis; format: functional, organism-based; conditions: time 6.0 day

T2 sequence (Q12809 whole entry): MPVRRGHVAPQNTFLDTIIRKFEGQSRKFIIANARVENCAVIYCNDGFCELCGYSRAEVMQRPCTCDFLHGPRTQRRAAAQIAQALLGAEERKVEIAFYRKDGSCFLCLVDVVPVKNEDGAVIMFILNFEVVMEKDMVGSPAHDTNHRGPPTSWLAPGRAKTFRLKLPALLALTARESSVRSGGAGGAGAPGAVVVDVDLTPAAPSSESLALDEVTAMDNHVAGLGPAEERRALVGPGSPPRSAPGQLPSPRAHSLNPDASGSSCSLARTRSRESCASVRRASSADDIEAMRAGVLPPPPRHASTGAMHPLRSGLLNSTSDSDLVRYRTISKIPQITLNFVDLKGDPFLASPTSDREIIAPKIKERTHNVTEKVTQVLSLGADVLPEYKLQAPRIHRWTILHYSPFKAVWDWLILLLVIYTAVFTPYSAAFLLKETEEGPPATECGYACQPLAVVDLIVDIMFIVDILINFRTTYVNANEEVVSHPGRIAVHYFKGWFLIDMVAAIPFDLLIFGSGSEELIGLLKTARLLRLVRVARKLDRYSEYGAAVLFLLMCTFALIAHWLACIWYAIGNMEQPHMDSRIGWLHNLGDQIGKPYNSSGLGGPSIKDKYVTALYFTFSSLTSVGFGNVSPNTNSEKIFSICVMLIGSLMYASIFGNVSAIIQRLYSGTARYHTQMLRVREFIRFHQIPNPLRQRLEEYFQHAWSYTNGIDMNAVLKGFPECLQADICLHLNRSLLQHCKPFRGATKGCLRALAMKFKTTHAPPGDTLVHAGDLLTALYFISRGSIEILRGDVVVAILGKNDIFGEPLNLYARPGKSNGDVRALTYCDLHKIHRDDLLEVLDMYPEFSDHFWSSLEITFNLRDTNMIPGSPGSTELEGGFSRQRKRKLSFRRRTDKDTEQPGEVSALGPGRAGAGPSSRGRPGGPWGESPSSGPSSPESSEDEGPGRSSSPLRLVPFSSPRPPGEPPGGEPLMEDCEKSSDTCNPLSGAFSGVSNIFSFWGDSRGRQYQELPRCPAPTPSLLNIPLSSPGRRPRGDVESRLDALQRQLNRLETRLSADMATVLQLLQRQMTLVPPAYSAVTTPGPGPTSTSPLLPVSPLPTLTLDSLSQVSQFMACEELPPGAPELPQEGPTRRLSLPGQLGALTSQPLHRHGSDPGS
CYP2C19, sequence (P33261 whole entry): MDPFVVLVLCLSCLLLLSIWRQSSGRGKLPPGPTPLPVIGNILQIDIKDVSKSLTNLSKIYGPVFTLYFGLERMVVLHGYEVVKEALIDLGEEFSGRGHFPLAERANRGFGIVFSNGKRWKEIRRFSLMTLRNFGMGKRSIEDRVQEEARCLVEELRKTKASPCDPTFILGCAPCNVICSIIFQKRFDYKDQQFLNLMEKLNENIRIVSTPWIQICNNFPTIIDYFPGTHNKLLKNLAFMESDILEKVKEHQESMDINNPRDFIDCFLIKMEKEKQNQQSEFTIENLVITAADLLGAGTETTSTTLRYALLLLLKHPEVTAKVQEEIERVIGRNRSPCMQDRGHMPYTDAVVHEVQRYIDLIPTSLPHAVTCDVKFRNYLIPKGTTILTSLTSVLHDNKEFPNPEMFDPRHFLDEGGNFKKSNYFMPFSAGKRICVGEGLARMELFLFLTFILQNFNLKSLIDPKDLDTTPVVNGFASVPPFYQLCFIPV
CYP2C9, sequence (P11712 whole entry): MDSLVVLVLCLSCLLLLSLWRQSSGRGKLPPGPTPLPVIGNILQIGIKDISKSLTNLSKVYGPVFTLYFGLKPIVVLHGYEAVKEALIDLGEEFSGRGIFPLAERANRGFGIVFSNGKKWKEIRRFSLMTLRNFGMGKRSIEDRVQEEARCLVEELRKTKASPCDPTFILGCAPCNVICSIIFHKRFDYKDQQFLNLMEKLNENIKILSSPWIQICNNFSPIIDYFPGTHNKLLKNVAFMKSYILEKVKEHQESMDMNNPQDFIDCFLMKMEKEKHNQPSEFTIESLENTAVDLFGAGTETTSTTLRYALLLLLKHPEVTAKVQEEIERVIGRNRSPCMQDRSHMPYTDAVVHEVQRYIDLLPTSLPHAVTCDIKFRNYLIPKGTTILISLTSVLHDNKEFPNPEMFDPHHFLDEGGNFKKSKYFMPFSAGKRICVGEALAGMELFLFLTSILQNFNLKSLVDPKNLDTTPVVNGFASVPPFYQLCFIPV
CYP2D6, sequence (P10635 whole entry): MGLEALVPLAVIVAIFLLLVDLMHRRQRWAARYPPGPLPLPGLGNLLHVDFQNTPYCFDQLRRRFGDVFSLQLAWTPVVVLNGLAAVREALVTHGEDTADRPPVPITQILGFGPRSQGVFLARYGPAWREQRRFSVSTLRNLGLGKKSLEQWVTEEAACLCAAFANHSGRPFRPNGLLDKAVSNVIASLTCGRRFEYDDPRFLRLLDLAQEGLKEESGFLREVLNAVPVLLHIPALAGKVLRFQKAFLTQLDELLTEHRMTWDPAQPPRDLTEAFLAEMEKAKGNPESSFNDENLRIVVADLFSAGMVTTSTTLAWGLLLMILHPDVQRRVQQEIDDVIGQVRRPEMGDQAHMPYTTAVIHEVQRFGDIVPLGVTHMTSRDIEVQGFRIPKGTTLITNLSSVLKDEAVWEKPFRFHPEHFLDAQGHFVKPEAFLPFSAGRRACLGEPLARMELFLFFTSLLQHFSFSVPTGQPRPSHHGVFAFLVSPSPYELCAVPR

Compound | CLint scaled [1] | solubility [2] | inhibition at 10 min, 10 µM (CYP1A2) | solubility [3] | inhibition at 10 min, 10 µM (CYP2D6) | CC50 [4] | inhibition at 1 µM (hERG (KCNH2) [5]) | Activity (Hepatitis B virus [6]) | inhibition at 10 min, 10 µM (CYP2C9) | inhibition at 10 min, 10 µM (CYP2C19) | selectivity ratio [7] | inhibition at 10 min, 10 µM (CYP3A) | microsomal CLint [8] | half-life [9] | inhibition at 10 µM (hERG (KCNH2) [10]) | EC50 (Hepatitis B virus [12]) | Activity (Hepatitis B virus [13]) | solubility [14] | remaining at 1 h [15] | also measured
CCOC(=O)C1=C(CN2CCN(C(/C=C/c3ccccc3)C(=O)O)CC2)NC(c2nccs2)=NC1c1ccc(F)cc1Br (stereo unspecified) | 13.3 mL/min/kg | 1.96 µg/mL (≈ 2.93 µM) | 0% | 361 µg/mL (≈ 541 µM) | 12.4% | 22400 nM | 11.7% | Active | 26.2% | 18.1% | 1060 | 44.6% | 14.8 µL/min/mg | 1.56 h | 93.4% | 21 nM | Active | < 0.58 µg/mL | 64.6% | Activity (Hepatitis B virus [11]): Active
CCOC(=O)C1=C(CN2CCOCC2)NC(c2nccs2)=NC1c1ccc(F)cc1Br (stereo unspecified) | 596 mL/min/kg | < 1.19 µg/mL | – | 215 µg/mL (≈ 423 µM) | – | – | – | – | – | – | – | – | 663 µL/min/mg | 0.035 h | – | 7 nM | – | < 1.19 µg/mL | 0.1% | Activity (Hepatitis B virus [16]): Active; EC50 (Hepatitis B virus [17]): 12 nM; Activity (Hepatitis B virus [18]): Dose-Dependent Effect
CCOC(=O)C1=C(CN2CCN(C(C(=O)O)c3cccc([N+](=O)[O-])c3)CC2)NC(c2nccs2)=NC1c1ccc(F)cc1Br (stereo unspecified) | 11.5 mL/min/kg | 6.85 µg/mL (≈ 9.96 µM) | 8.9% | 375 µg/mL (≈ 545 µM) | 34% | 29200 nM | 15.7% | Active | 31.6% | 15.3% | 1220 | 17.1% | 12.8 µL/min/mg | 1.8 h | 72.7% | 20 nM | Active | 25.5 µg/mL (≈ 37.1 µM) | 68% | Activity (Hepatitis B virus [19]): Active
